Data reported in patent US11168073B2, “3,3-difluoroallylamines or salts thereof and pharmaceutical compositions comprising the same” (YUHAN CORPORATION, priority 2018, dated 2021).
Where a name gives a salt, the structure may show the parent alone.

Columns and labels:
Assay type in all cases: biochemical
[1] = biological target: T1, recombinant human MAO-B (monoamine oxidase-B) (Homo sapiens, UniProt P27338); test: Activity evaluation on recombinant human MAO-B (Amplex Red/HRP-coupled assay, 1 mM benzylamine substrate); conditions: 1 mM benzylamine, read-out: Inhibitory Activity (IC50, nM) MAO-B
T1 construct: purchased Sigma-Aldrich
T1 sequence (P27338 1-520): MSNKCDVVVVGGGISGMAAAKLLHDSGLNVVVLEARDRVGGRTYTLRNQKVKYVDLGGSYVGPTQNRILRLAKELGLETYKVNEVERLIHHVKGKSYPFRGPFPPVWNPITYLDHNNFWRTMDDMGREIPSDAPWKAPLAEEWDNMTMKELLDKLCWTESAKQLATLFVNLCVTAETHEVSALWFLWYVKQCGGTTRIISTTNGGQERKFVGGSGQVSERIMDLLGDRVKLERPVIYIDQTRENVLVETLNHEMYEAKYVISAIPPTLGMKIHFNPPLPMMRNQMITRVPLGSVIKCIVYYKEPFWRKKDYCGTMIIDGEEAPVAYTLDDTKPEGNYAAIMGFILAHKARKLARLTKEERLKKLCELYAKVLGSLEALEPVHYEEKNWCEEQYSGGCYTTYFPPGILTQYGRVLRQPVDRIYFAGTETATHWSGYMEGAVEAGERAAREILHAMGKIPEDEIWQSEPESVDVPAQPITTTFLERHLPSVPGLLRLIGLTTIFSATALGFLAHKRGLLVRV
In short: (§1)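 Compounds preincubated 30 min at 37 °C with enzyme in 50 mM sodium phosphate pH 7.4 (final DMSO <1%, 8-point 1:3 dilutions); reaction started with 200 uM Amplex Red, 1 U/mL HRP and substrate (MAO-A 0.5 mM tyramine, MAO-B 1 mM benzylamine, DAO 1 mM putrescine). Resorufin fluorescence (ex 544/em 590 nm) followed over 1-2 h; IC50 from four-parameter logistic fit.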

[2] = biological target: T2, recombinant human DAO (diamine oxidase) (Homo sapiens, UniProt P19801); test: Activity evaluation on recombinant human DAO (Amplex Red/HRP-coupled assay, 1 mM putrescine substrate); conditions: 1 mM putrescine, read-out: Inhibitory Activity (IC50, nM) DAO
T2 construct: purchased R&D systems
T2 sequence (P19801 20-751): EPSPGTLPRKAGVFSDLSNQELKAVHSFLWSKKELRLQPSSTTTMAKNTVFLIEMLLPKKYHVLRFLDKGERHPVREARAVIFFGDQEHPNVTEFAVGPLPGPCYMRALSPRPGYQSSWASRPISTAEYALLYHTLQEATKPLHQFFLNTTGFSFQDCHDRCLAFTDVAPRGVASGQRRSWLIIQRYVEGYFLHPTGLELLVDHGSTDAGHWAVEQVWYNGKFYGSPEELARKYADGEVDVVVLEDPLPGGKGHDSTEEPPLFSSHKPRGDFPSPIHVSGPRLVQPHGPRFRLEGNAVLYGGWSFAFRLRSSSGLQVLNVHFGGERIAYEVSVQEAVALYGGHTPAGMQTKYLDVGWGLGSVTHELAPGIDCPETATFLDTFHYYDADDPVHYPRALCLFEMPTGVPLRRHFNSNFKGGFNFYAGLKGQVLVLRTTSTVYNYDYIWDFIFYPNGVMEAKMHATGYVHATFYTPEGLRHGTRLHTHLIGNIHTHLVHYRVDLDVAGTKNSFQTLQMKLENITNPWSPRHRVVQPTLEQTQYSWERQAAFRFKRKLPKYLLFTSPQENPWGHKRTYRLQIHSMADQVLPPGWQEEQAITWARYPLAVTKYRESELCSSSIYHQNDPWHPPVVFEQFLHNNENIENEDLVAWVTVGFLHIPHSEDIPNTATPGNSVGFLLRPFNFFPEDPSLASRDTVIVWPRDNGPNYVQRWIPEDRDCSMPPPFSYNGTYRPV
In short: as §1

[3] = biological target: T3, recombinant human VAP-1 (Homo sapiens, UniProt Q16853); test: Activity evaluation on recombinant human VAP-1 (Amplex Red/HRP-coupled hydrogen peroxide assay, benzylamine substrate); conditions: recombinant human VAP-1; 30 min preincubation at 37° C.; 1 mM benzylamine; read-out: Inhibitory Activity (IC50, nM) human VAP-1
T3 construct: purchased R&D systems
T3 sequence (Q16853 1-763): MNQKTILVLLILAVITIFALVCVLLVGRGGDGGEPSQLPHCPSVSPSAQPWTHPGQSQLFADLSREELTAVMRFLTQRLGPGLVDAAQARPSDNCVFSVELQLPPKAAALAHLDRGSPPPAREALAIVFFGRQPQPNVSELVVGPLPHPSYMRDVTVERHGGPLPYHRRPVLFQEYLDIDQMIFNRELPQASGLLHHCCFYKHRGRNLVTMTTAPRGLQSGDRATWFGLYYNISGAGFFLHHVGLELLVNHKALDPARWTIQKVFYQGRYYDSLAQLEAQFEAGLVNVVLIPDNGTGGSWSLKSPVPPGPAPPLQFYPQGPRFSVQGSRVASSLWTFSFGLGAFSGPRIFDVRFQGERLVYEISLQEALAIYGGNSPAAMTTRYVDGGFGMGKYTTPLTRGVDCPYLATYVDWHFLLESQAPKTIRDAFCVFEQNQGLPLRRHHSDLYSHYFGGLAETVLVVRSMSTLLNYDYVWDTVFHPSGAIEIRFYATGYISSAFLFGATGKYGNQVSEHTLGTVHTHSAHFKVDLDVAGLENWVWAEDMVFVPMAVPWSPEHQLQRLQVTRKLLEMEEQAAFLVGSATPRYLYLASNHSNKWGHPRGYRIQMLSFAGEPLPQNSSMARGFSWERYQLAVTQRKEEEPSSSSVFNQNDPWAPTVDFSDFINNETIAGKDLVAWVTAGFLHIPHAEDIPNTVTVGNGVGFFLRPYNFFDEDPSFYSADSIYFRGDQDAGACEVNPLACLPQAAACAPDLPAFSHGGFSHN
In short: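 Recombinant human VAP-1 in 50 mM sodium phosphate pH 7.4 preincubated 30 min at 37 °C with compound (8-point 1:3 series, <1% DMSO), then 1 mM benzylamine, 200 uM Amplex Red, 1 U/mL HRP added. H2O2-derived resorufin fluorescence (ex 544/em 590) followed 1–2 h; IC50 from four-parameter fit of rate inhibition.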

[4] = biological target: T4, recombinant human MAO-A (monoamine oxidase-A) (Homo sapiens, UniProt P21397); test: Activity evaluation on recombinant human MAO-A (Amplex Red/HRP-coupled assay, 0.5 mM tyramine substrate); conditions: 0.5 mM tyramine, read-out: Inhibitory Activity (IC50, nM) MAO-A
T4 construct: purchased Sigma-Aldrich
T4 sequence (P21397 1-527): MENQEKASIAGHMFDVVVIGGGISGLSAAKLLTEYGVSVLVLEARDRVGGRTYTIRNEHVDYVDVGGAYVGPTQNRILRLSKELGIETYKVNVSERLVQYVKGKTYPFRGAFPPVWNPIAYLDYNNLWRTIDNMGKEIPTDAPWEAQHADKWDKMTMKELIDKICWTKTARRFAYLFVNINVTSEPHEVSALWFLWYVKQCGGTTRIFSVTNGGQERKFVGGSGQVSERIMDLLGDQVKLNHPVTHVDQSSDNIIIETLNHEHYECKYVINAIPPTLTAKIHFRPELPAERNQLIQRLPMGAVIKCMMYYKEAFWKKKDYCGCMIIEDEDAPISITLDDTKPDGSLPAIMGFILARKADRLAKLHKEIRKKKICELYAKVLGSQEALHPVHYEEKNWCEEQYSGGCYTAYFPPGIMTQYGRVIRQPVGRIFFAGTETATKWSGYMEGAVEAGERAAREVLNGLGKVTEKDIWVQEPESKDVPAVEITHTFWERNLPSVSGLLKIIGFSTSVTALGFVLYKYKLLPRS
In short: as §1

IC50 [1] [nM] | IC50 [2] [nM] | IC50 [3] [nM] | IC50 [4] [nM] | Structure (SMILES)
> 100000 | 50000 | 56 | > 100000 | Cc1cc(-c2ccc(N3CCNCC3)cc2)sc1Cn1cnn(CC(CN)=C(F)F)c1=O [Example 155, 2-[2-(aminomethyl)-3,3-difluoro-allyl]-4-[[3-methyl-5-(4-piperazin-1-ylphenyl)-2-thienyl]methyl]-1,2,4-triazol-3-one Ditrifluoroacetate]
17000 | 9100 | 3.2 | > 100000 | Cc1cc(-c2ccc(C(F)(F)F)nc2)sc1Cn1cnn(CC(CN)=C(F)F)c1=O [Example 156, 2-[2-(aminomethyl)-3,3-difluoro-allyl]-4-[[3-methyl-5-[6-(trifluoromethyl)-3-pyridyl]-2-thienyl]methyl]-1,2,4-triazol-3-one Trifluoroacetate]
> 100000 | > 100000 | 2.3 | > 100000 | Cc1cc(-c2ccc(N(C)C)nc2)sc1Cn1cnn(CC(CN)=C(F)F)c1=O [Example 157, 2-[2-(aminomethyl)-3,3-difluoro-allyl]-4-[[5-[6-(dimethylamino)-3-pyridyl]-3-methyl-2-thienyl]methyl]-1,2,4-triazol-3-one Trifluoroacetate]
3800 | > 100000 | 7 | > 100000 | Cc1cc(-c2ccc3c(c2)OCO3)sc1Cn1cnn(CC(CN)=C(F)F)c1=O [Example 158, 2-[2-(aminomethyl)-3,3-difluoro-allyl]-4-[[5-(1,3-benzodioxol-5-yl)-3-methyl-2-thienyl]methyl]-1,2,4-triazol-3-one Trifluoroacetate]
> 100000 | 52000 | 5.2 | > 100000 | CCn1cc(-c2cc(C)c(Cn3cnn(CC(CN)=C(F)F)c3=O)s2)cn1 [Example 159, 2-[2-(aminomethyl)-3,3-difluoro-allyl]-4-[[5-(1-ethylpyrazol-4-yl)-3-methyl-2-thienyl]methyl]-1,2,4-triazol-3-one Trifluoroacetate]
15600 | 5090 | 1.5 | > 100000 | Cn1cc(C#Cc2cccc(-n3cnn(CC(CN)=C(F)F)c3=O)n2)cn1 [Example 160, 2-[2-(aminomethyl)-3,3-difluoro-allyl]-4-[6-[2-(1-methylpyrazol-4-yl)ethynyl]-2-pyridyl]-1,2,4-triazol-3-one trifluoroacetate]
> 100000 | 54000 | 0.2 | > 100000 | NCC(Cn1ncn(Cc2ccc(/C=C/c3cnc4c(c3)NC(=O)CO4)s2)c1=O)=C(F)F [Example 161, 7-[(E)-2-[5-[[1-[2-(aminomethyl)-3,3-difluoro-allyl]-5-oxo-1,2,4-triazol-4-yl]methyl]-2-thienyl]vinyl]-1H-pyrido[2,3-b][1,4]oxazin-2-one Trifluoroacetate]
31000 | 8400 | 0.4 | > 100000 | NCC(Cn1ncn(Cc2ccc(C#Cc3ccc(N4CCOCC4)nc3)s2)c1=O)=C(F)F [Example 163, 2-[2-(aminomethyl)-3,3-difluoro-allyl]-4-[[5-[2-(6-morpholino-3-pyridyl)ethynyl]-2-thienyl]methyl]-1,2,4-triazol-3-one Trifluoroacetate]
34000 | > 10000 | 2.5 | 4000 | NCC(Cn1ncn(Cc2ccc(C#Cc3ccc4c(c3)NCCO4)s2)c1=O)=C(F)F [Example 164, 2-[2-(aminomethyl)-3,3-difluoro-allyl]-4-[[5-[2-(3,4-dihydro-2H-1,4-benzoxazin-6-yl)ethynyl]-2-thienyl]methyl]-1,2,4-triazol-3-one Ditrifluoroacetate]
5900 | > 10000 | 0.5 | > 100000 | NCC(Cn1ncn(Cc2ccc(C#Cc3ccc4c(c3)CCC(=O)N4)s2)c1=O)=C(F)F [Example 165, 6-[2-[5-[[1-[2-(aminomethyl)-3,3-difluoro-allyl]-5-oxo-1,2,4-triazol-4-yl]methyl]-2-thienyl]ethynyl]-3,4-dihydro-1H-quinolin-2-one Trifluoroacetate]
> 10000 | > 10000 | 0.9 | > 10000 | NCC(Cn1ncn(Cc2ccc(C#Cc3cnc4c(c3)NCCO4)s2)c1=O)=C(F)F [Example 166, 2-[2-(aminomethyl)-3,3-difluoro-allyl]-4-[[5-[2-(2,3-dihydro-1H-pyrido[2,3-b][1,4]oxazin-7-yl)ethynyl]-2-thienyl]methyl]-1,2,4-triazol-3-one Ditrifluoroacetate]
41000 | > 10000 | 2.1 | > 100000 | NCC(Cn1ncn(Cc2ccc(C#Cc3cnc4c(c3)OCCN4)s2)c1=O)=C(F)F [Example 167, 2-[2-(aminomethyl)-3,3-difluoro-allyl]-4-[[5-[2-(3,4-dihydro-2H-pyrido[3,2-b][1,4]oxazin-7-yl)ethynyl]-2-thienyl]methyl]-1,2,4-triazol-3-one Ditrifluoroacetate]
